# In ChEMBL document CHEMBL1201862, “PubChem BioAssay data set” (2004):
#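 Grown in 96-well plates, cells were treated for 48 hours with each compound at five concentrations. Insufficient inhibition: endpoint recorded as highest concentration tested. Here, GI50 denotes the concentration required for 50% inhibition of growth.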 The source made the active and inactive calls. Rule as the data show it: active = GI50 up to about 1.1 µM and inactive = higher.
# Key:
# Experiment in all cases: inhibition of tumour cell growth, NCI panel, 48 h
# [1] = tested on: OVCAR-5
# [2] = tested on: TK-10
# [3] = tested on: SF-539
# [4] = tested on: K562
# [5] = tested on: SR
# [6] = tested on: HCT-15
# [7] = tested on: UACC-257
# [8] = tested on: 786-0
# [9] = tested on: LOX IMVI
# [10] = tested on: SNB-19
# [11] = tested on: M14
# [12] = tested on: MOLT-4
# [13] = tested on: RXF 393
# [14] = tested on: IGROV-1
# [15] = tested on: SF-268
# [16] = tested on: A549
# [17] = tested on: OVCAR-4
# [18] = tested on: HT-29
# [19] = tested on: CAKI-1
Compound,GI50 [1],GI50 [2],GI50 [3],GI50 [4],GI50 [5],GI50 [6] [µM],GI50 [7],GI50 [8],GI50 [9],GI50 [10],GI50 [11],GI50 [12],GI50 [13],GI50 [14],GI50 [15],GI50 [16],GI50 [17],GI50 [18],GI50 [19]
CC(=O)Oc1ccc(Nn2c3ccccc3c3ccccc32)c(C)c1,> 100 µM (inactive),39.3 µM (inactive),> 10 µM (inactive),32.1 µM (inactive),21.7 µM (inactive),24.6,33.4 µM (inactive),20.6 µM (inactive),> 10 µM (inactive),78.7 µM (inactive),29 µM (inactive),23.4 µM (inactive),29.5 µM (inactive),23.6 µM (inactive),45.9 µM (inactive),56.8 µM (inactive),,,
NC(CCCCNCc1ccccc1)C(=O)O (stereo not given),> 100 µM (inactive),> 100 µM (inactive),> 100 µM (inactive),> 100 µM (inactive),,> 100,> 100 µM (inactive),> 100 µM (inactive),> 100 µM (inactive),> 100 µM (inactive),> 100 µM (inactive),> 100 µM (inactive),,> 100 µM (inactive),> 100 µM (inactive),> 100 µM (inactive),> 100 µM (inactive),> 100 µM (inactive),> 100 µM (inactive)
CCCCCCCCCCCC(=O)C1=C(O)CCC(O)C1=O (stereo not given),27.7 µM (inactive),18.4 µM (inactive),19.1 µM (inactive),7.6 µM (inactive),,8.89,14.7 µM (inactive),19.4 µM (inactive),11.3 µM (inactive),9.08 µM (inactive),,17.9 µM (inactive),35.1 µM (inactive),19.9 µM (inactive),27.2 µM (inactive),29.9 µM (inactive),18.5 µM (inactive),15.6 µM (inactive),23 µM (inactive)
O=C(O)CCCCCCC[C@H]1S[C@H]1CCCCCCO,> 100 µM (inactive),> 100 µM (inactive),> 100 µM (inactive),> 100 µM (inactive),> 100 µM (inactive),> 100,,> 100 µM (inactive),,> 100 µM (inactive),> 100 µM (inactive),> 100 µM (inactive),> 100 µM (inactive),> 100 µM (inactive),> 100 µM (inactive),,> 100 µM (inactive),> 100 µM (inactive),> 100 µM (inactive)
O=C(CC1(O)C(=O)Nc2c(Cl)cc(Cl)cc21)c1ccco1 (stereo not given),> 100 µM (inactive),88.1 µM (inactive),,30.3 µM (inactive),,40.5,> 100 µM (inactive),23.7 µM (inactive),33.1 µM (inactive),> 100 µM (inactive),54 µM (inactive),15.4 µM (inactive),78 µM (inactive),,50 µM (inactive),> 100 µM (inactive),15.7 µM (inactive),52.7 µM (inactive),45 µM (inactive)
c1ccc2c(c1)nc1n2CSC1,,> 100 µM (inactive),> 100 µM (inactive),> 100 µM (inactive),,> 100,,,> 100 µM (inactive),> 100 µM (inactive),> 100 µM (inactive),> 100 µM (inactive),,> 100 µM (inactive),> 100 µM (inactive),,,> 100 µM (inactive),> 100 µM (inactive)
CC(=O)C1C(=O)C(=O)N(c2ccc(Cl)cc2C)C1=O (stereo not given),> 100 µM (inactive),> 100 µM (inactive),> 100 µM (inactive),> 100 µM (inactive),> 100 µM (inactive),> 100,> 100 µM (inactive),> 100 µM (inactive),,> 100 µM (inactive),> 100 µM (inactive),> 100 µM (inactive),> 100 µM (inactive),> 100 µM (inactive),> 100 µM (inactive),> 100 µM (inactive),> 100 µM (inactive),> 100 µM (inactive),
COc1ccc(/C=C(\C2=NC(=O)CS2)c2nc3ccccc3[nH]2)cc1,41.8 µM (inactive),> 100 µM (inactive),4.6 µM (inactive),78.2 µM (inactive),> 100 µM (inactive),83.8,78 µM (inactive),,,> 100 µM (inactive),93.1 µM (inactive),54.8 µM (inactive),3.13 µM (inactive),52.1 µM (inactive),> 100 µM (inactive),> 100 µM (inactive),> 100 µM (inactive),> 100 µM (inactive),> 100 µM (inactive)
Cn1c2ccccc2c2ccc3c(c21)C(=O)C(c1ccccc1)=CC3=O,> 100 µM (inactive),43.8 µM (inactive),24.2 µM (inactive),4.75 µM (inactive),,7.03,32.7 µM (inactive),17.1 µM (inactive),,42.5 µM (inactive),39.4 µM (inactive),14.8 µM (inactive),,13.4 µM (inactive),36 µM (inactive),34.4 µM (inactive),,45.4 µM (inactive),49.9 µM (inactive)
COc1ccc2c(c1)[n+]([O-])c(-c1cccc(Cl)c1)c(N)[n+]2[O-],33.1 µM (inactive),,31.3 µM (inactive),45.1 µM (inactive),43.6 µM (inactive),,21.1 µM (inactive),95.1 µM (inactive),,> 100 µM (inactive),,46 µM (inactive),53.8 µM (inactive),46.8 µM (inactive),33.8 µM (inactive),32.7 µM (inactive),34.6 µM (inactive),41.5 µM (inactive),62.4 µM (inactive)
N#C/C(=C/c1ccco1)C(=O)c1ccccc1,> 100 µM (inactive),> 100 µM (inactive),> 100 µM (inactive),> 100 µM (inactive),> 100 µM (inactive),> 100,> 100 µM (inactive),> 100 µM (inactive),> 100 µM (inactive),,> 100 µM (inactive),> 100 µM (inactive),,> 100 µM (inactive),> 100 µM (inactive),> 100 µM (inactive),> 100 µM (inactive),> 100 µM (inactive),> 100 µM (inactive)
COc1cc(C2C(C(=O)Nc3ccccc3C)=C(C)NC(C)=C2C(=O)Nc2ccccc2C)ccc1O,> 100 µM (inactive),> 100 µM (inactive),> 100 µM (inactive),> 100 µM (inactive),,,> 100 µM (inactive),> 100 µM (inactive),,> 100 µM (inactive),> 100 µM (inactive),60.7 µM (inactive),> 100 µM (inactive),> 100 µM (inactive),,> 100 µM (inactive),> 100 µM (inactive),> 100 µM (inactive),> 100 µM (inactive)
Cc1ccc(S(=O)(=O)N/N=C(/c2nc3ccc([N+](=O)[O-])cc3nc2O)C(O)c2ccc(C(O)/C(=N\NS(=O)(=O)c3ccc(C)cc3)c3nc4ccc([N+](=O)[O-])cc4nc3O)cc2)cc1 (stereo not given),> 100 µM (inactive),> 100 µM (inactive),42.9 µM (inactive),13 µM (inactive),,,14.8 µM (inactive),> 100 µM (inactive),20.3 µM (inactive),> 100 µM (inactive),20.8 µM (inactive),28.2 µM (inactive),> 100 µM (inactive),> 100 µM (inactive),,49.1 µM (inactive),,31 µM (inactive),
CS(=O)(=O)N/N=C/CN1C(=O)c2ccccc2C1=O,> 100 µM (inactive),> 100 µM (inactive),> 100 µM (inactive),> 100 µM (inactive),> 100 µM (inactive),> 100,> 100 µM (inactive),> 100 µM (inactive),,> 100 µM (inactive),> 100 µM (inactive),> 100 µM (inactive),,> 100 µM (inactive),> 100 µM (inactive),> 100 µM (inactive),> 100 µM (inactive),> 100 µM (inactive),> 100 µM (inactive)
COc1ccc(/C(Cl)=C(\C=O)c2ccc(OC)c(OC)c2)cc1,,68.2 µM (inactive),23.8 µM (inactive),21 µM (inactive),,52.1,,,23.3 µM (inactive),41.1 µM (inactive),> 100 µM (inactive),28.6 µM (inactive),,46.1 µM (inactive),30.1 µM (inactive),,,29.3 µM (inactive),74.5 µM (inactive)
CC1C(/C=C/c2ccoc2)ON2CCCC12 (stereo not given),> 100 µM (inactive),> 100 µM (inactive),> 100 µM (inactive),,,,> 100 µM (inactive),> 100 µM (inactive),> 100 µM (inactive),> 100 µM (inactive),> 10 µM (inactive),,35.6 µM (inactive),,> 100 µM (inactive),,> 100 µM (inactive),> 100 µM (inactive),> 100 µM (inactive)
CN1c2ccccc2N(C(=O)c2ccc([N+](=O)[O-])cc2)C(CC(=O)O)c2cccn21 (stereo not given),> 100 µM (inactive),> 100 µM (inactive),> 100 µM (inactive),> 100 µM (inactive),,> 100,> 100 µM (inactive),> 100 µM (inactive),> 100 µM (inactive),> 100 µM (inactive),> 100 µM (inactive),> 100 µM (inactive),> 100 µM (inactive),> 100 µM (inactive),> 100 µM (inactive),> 100 µM (inactive),> 100 µM (inactive),> 100 µM (inactive),> 100 µM (inactive)
COC(C(O)c1ccc2c(c1)OCO2)P(=O)(c1ccccc1)c1ccccc1 (stereo not given),> 100 µM (inactive),> 100 µM (inactive),> 100 µM (inactive),60.3 µM (inactive),> 100 µM (inactive),,> 100 µM (inactive),> 100 µM (inactive),,> 100 µM (inactive),> 100 µM (inactive),> 100 µM (inactive),81.7 µM (inactive),> 100 µM (inactive),> 100 µM (inactive),,11.1 µM (inactive),> 100 µM (inactive),33.6 µM (inactive)
